In one assay the target is human orexin receptor 1 (Homo sapiens (Human), UniProt O43613). As to the kind of experiment: Orexin antagonist activity, intracellular calcium FLIPR assay (orexin receptor 1). The class given is cell-based. As to conditions: RBL-2H3 cells stably expressing human orexin receptor 1; Ca2+ dye FLIPR; compound 15 minutes before orexin-A at approximately 80% maximal response; read-out: Human Orexin1R IC50. The essentials:
(§1)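 RBL-2H3 cells stably expressing human OX1 or OX2 were loaded with Calcium 5 dye for 1 h at 37 °C. Compounds were added 15 min before orexin-A at a concentration giving ~80% maximal response, and Ca2+ fluorescence was read by FLIPR.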

In another assay the target is human orexin receptor 2 (Homo sapiens (Human), UniProt O43614). The assay is described as follows: Orexin antagonist activity, intracellular calcium FLIPR assay (orexin receptor 2). As to conditions: RBL-2H3 cells stably expressing human orexin receptor 2; Ca2+ dye FLIPR; compound 15 minutes before orexin-A at approximately 80% maximal response; read-out: Human Orexin2R IC50. The assay is classed as cell-based. The procedure, abridged:
as §1
On the technique in general: Calcium flux is commonly read through the fluorescence of an indicator in the cells.

Chain of human orexin receptor 1 (O43613 whole entry): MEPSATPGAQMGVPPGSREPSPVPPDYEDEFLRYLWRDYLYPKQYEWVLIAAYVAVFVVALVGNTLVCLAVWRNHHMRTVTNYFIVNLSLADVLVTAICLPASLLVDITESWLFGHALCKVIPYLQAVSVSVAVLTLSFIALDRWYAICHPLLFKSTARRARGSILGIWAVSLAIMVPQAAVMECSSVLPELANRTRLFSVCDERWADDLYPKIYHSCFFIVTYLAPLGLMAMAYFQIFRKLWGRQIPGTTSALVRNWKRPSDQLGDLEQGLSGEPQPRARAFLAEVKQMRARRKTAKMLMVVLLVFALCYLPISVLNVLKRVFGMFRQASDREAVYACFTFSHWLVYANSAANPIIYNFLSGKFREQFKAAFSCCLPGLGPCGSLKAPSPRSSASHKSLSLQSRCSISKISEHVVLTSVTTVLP
Chain of human orexin receptor 2 (O43614 whole entry): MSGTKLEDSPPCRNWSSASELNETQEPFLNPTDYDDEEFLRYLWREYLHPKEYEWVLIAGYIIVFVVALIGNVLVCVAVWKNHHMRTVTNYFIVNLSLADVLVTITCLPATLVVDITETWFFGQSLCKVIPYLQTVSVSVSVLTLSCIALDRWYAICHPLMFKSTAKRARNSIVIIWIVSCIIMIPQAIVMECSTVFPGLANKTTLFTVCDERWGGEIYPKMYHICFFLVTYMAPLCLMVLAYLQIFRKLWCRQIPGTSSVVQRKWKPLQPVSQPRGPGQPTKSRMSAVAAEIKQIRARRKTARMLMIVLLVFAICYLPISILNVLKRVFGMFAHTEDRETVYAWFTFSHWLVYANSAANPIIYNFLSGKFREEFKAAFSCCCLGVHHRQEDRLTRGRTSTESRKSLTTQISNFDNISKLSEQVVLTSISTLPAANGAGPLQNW

The term IC50 denotes the concentration needed to halve the response being measured. In the case of `O=C(N[C@H]1CCC[C@@H]1Nc1nc2ccc(F)cc2s1)c1ccccc1-n1nccn1` [Example 59, N-[(1S,2S)-2-[(6-Fluoro-1,3-benzothiazol-2-yl)amino]cyclopentyl]-2-(2H-1,2,3-triazol-2-yl)benzamide], the figures for the IC50 at human orexin receptor 1 and on human orexin receptor 2 were 11 nM and 6700 nM, respectively.
With `O=C(N[C@H]1CCC[C@@H]1Nc1nc2ccc(F)cc2s1)c1c(F)cccc1F` [Example 47, 2,6-Difluoro-N-[(1S,2S)-2-[(6-fluoro-1,3-benzothiazol-2-yl)amino]-cyclopentyl]benzamide], the IC50 on human orexin receptor 1 is 150 nM; on human orexin receptor 2, > 10000 nM.
`COc1cccc(OC)c1C(=O)N[C@@H]1CCC[C@@H]1Nc1nc2ccc(Cl)cc2s1` [Example 13, N-[(1R,2S)-2-[(6-Chloro-1,3-benzothiazol-2-yl)amino]cyclopentyl]-2,6-dimethoxybenzamide]: the IC50 stood at 580 nM at human orexin receptor 1 and 5300 nM on human orexin receptor 2.
Regarding `COc1cccc(OC)c1C(=O)NC1C[C@@H](O)CC1Nc1nc2ccc(Cl)cc2s1` (stereo in doubt) [Example 25, N-[(1S,2R,4R)-2-[(6-Chloro-1,3-benzothiazol-2-yl)amino]-4-hydroxycyclopentyl]-2,6-dimethoxybenzamide], the IC50 on human orexin receptor 1 was found to be 340 nM; on human orexin receptor 2, 130 nM.
On the same counts, the results for `O=C(N[C@H]1CCC[C@@H]1Nc1nc2ccccc2o1)c1ccccc1-n1nccn1` [Example 86, N-[(1S,2S)-2-[(1,3-Benzoxazol-2-yl)amino]cyclopentyl]-2-(2H-1,2,3-triazol-2-yl)benzamide] are 150 nM and > 10000 nM.
On the same counts, the results for `Cc1ccc(-n2nccn2)c(C(=O)NC2CCCC2Cc2ccc3ccccc3n2)c1` (single isomer, unassigned) [Example 61, 5-Methyl-N-[2-(quinolin-2-ylmethyl)cyclopentyl]-2-(2H-1,2,3-triazol-2-yl)benzamide] are 35 nM and > 10000 nM.
As for `CCOc1cccc(OCC)c1C(=O)NC1CCCC1Cc1ccc2ccccc2n1` (stereo not drawn) [Example 30, 2,6-Diethoxy-N-(2-(quinolin-2-ylmethyl)cyclopentyl)benzamide], the IC50 on human orexin receptor 1 was 320 nM; at human orexin receptor 2, 370 nM.
For the compound `Cc1cccc(C)c1C(=O)N[C@H]1CCC[C@@H]1Nc1nc2ccc(F)cc2s1` [Example 68, N-[(1S,2S)-2-[(6-Fluoro-1,3-benzothiazol-2-yl)amino]cyclopentyl]-2,6-dimethylbenzamide], the IC50 at human orexin receptor 1 is 320 nM; at human orexin receptor 2, > 10000 nM.
On the same counts, the results for `Cc1noc(-c2ccccc2C(=O)N(C)[C@H]2CCC[C@@H]2Nc2nc3ccc(F)cc3s2)n1` [Example 83, N-[(1S,2S)-2-[(6-Fluoro-1,3-benzothiazol-2-yl)amino]cyclopentyl]-N-methyl-2-(3-methyl-1,2,4-oxadiazol-5-yl)benzamide] are 1 nM and 1200 nM.
`COc1cccc(OC)c1C(=O)N[C@H]1CCC[C@H]1Nc1cnc2ccccc2n1` [Example 1, 2,6-Dimethoxy-N-[(1S,2R)-2-[(quinoxalin-2-yl)amino]cyclopentyl]-benzamide]: the IC50 on human orexin receptor 1 was 0.84 nM; on human orexin receptor 2 it was 98 nM.
On the same counts, the results for `O=C(N[C@H]1CCC[C@@H]1Nc1nc2ccc(F)cc2s1)c1ccccc1-n1ccnc1` [Example 43, N-[(1S,2S)-2-[(6-Fluoro-1,3-benzothiazol-2-yl)amino]cyclopentyl]-2-(1H-imidazol-1-yl)benzamide] are 39 nM and > 10000 nM.
With `COc1cccc(OC)c1C(=O)N[C@H]1CCC[C@@H]1Nc1nc2ccc(Cl)cc2s1` [Example 10, N-[(1S,2S)-2-[(6-Chloro-1,3-benzothiazol-2-yl)amino]cyclopentyl]-2,6-dimethoxybenzamide], the IC50 on human orexin receptor 1 was determined as 210 nM; at human orexin receptor 2 it was 7200 nM.
Take `COc1cccc(OC)c1C(=O)N[C@H]1CCC[C@@H]1Nc1cnc2ccccc2n1` [Example 2, 2,6-Dimethoxy-N-((1S,2S)-2-(quinoxalin-2-ylamino)cyclopentyl)benzamide]: the IC50 at human orexin receptor 1 stood at 36 nM; at human orexin receptor 2, 6500 nM.
On to `COc1cccc(OC)c1C(=O)N[C@H]1CCC[C@@H]1Nc1nc2ccc(F)cc2s1` [Example 3, N-[(1S,2S)-2-[(6-Fluoro-1,3-benzothiazol-2-yl)amino]cyclopentyl]-2,6-dimethoxybenzamide], for which the concentration for half-maximal inhibition (IC50) on human orexin receptor 1 is 4.2 nM; at human orexin receptor 2 it was 7600 nM.
For `COc1cccc(F)c1C(=O)N[C@H]1CCC[C@@H]1Nc1nc2ccc(F)cc2s1` [Example 46, 2-Fluoro-N-[(1S,2S)-2-[(6-fluoro-1,3-benzothiazol-2-yl)amino]cyclopentyl]-6-methoxybenzamide], the IC50 was 110 nM at human orexin receptor 1 and 6300 nM at human orexin receptor 2.
Regarding `COc1cccc(OC)c1C(=O)N[C@H]1CCC[C@@H]1Nc1nc2cc(Cl)ccc2s1` [Example 6, N-[(1S,2S)-2-[(5-Chloro-1,3-benzothiazol-2-yl)amino]cyclopentyl]-2,6-dimethoxybenzamide], the half-inhibitory concentration (IC50) was 35 nM at human orexin receptor 1 and > 10000 nM at human orexin receptor 2.
Consider `Cc1ccc(-n2nccn2)c(C(=O)NC2CCCC2Cc2ccc3ccccc3n2)c1` (stereo not drawn) [Example 27, 5-Methyl-N-[2-(quinolin-2-ylmethyl)cyclopentyl]-2-(2H-1,2,3-triazol-2-yl)benzamide], for which the IC50 turned out to be 52 nM on human orexin receptor 1 and 8500 nM at human orexin receptor 2.
Consider `COc1cccc(OC)c1C(=O)NC1CN(C(=O)OCc2ccccc2)CC1Nc1nc2ccc(Cl)cc2s1` (stereo not drawn) [Example 22, Benzyl cis-3-[(6-chloro-1,3-benzothiazol-2-yl)amino]-4-[(2,6-dimethoxybenzene)amido]pyrrolidine-1-carboxylate], for which the half-maximal inhibitory concentration (IC50) on human orexin receptor 1 came out at 23 nM; on human orexin receptor 2 it was 8600 nM.

For the origin of these results see patent US9493432B2, “Cyclopentylbenzamide derivatives and their use for the treatment of psychotic and cognitive disorders” (Takeda Pharmaceutical Company Limited, priority 2013, dated 2016).
